Data as given in patent US9212163B2, “Pesticidal compositions and processes related thereto” (Dow AgroSciences LLC, priority 2012, dated 2015).
Like-named read-outs stand apart in the source and are kept apart here.

How the values were obtained:
[1] = test system: Beet Armyworm (BAW) (Spodoptera exigua); test: Bioassay on Beet Armyworm (BAW), 128-well diet tray assay; assay type: in vivo; details: Spodoptera exigua, read-out: BAW Rating
Summary of the method: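 Artificial diet treated with 50 μg/cm^2 compound in 90:10 acetone-water was dried, then one to five second-instar larvae were placed per well, eight wells per compound. Trays were held at 25° C., 14:10 light-dark for five to seven days, and percent mortality averaged across wells.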

[2] = test system: Corn Earworm (CEW) (Helicoverpa zea); test: Bioassay on Corn Earworm (CEW), 128-well diet tray assay; assay type: in vivo; details: Table 3: Assay Results Part 1, read-out: CEW Rating
Experimental: (§1) Certain molecules disclosed in this document were tested against BAW, CEW and CL using procedures described in the following examples. In the reporting of the results, the “BAW & CEW & CL Rating Table” was used (See Table Section).
Bioassays on CEW (Helicoverpa zea)
Bioassays on CEW were conducted using a 128-well diet tray assay. One to five second instar CEW larvae were placed in each well (3 mL) of the diet tray that had been previously filled with 1 mL of artificial diet to which 50 μg/cm^2 of the test compound (dissolved in 50 μL of 90:10 acetone-water mixture) had been applied (to each of eight wells) and then allowed to dry. Trays were covered with a clear self-adhesive cover, and held at 25° C., 14:10 light-dark for five to seven days. Percent mortality was recorded for the larvae in each well; activity in the eight wells was then averaged. The results are indicated in the table entitled “Table 3: Assay Results Part 1” (See Table Section).

[3] = test system: Cabbage Looper (CL) (Trichoplusia ni); test: Bioassay on Cabbage Looper (CL), 128-well diet tray assay; assay type: in vivo; details: Table 5: Prophetic Compounds Subsequently Exemplified, read-out: CL Rating
Experimental: as §1
Bioassays on CL (Trichoplusia ni)
Bioassays on CL were conducted using a 128-well diet tray assay. One to five second instar CL larvae were placed in each well (3 mL) of the diet tray that had been previously filled with 1 mL of artificial diet to which 50 μg/cm^2 of the test compound (dissolved in 50 μL of 90:10 acetone-water mixture) had been applied (to each of eight wells) and then allowed to dry. Trays were covered with a clear self-adhesive cover, and held at 25° C., 14:10 light-dark for five to seven days. Percent mortality was recorded for the larvae in each well; activity in the eight wells was then averaged. The results are indicated in the table entitled “Table 4: Assay Results Part 2” (See Table Section).

[4] = test system: Green Peach Aphid (GPA) (Myzus persicae); test: Bioassay on Green Peach Aphid (GPA), foliar spray on cabbage seedlings; assay type: in vivo; details: 72 h, Table 5: Prophetic Compounds Subsequently Exemplified, read-out: GPA Rating
Experimental: Certain molecules disclosed in this document were tested against GPA using procedures described in the following example. In the reporting of the results, the “GPA Rating Table” was used (See Table Section).
Cabbage seedlings grown in 3-inch pots, with 2-3 small (3-5 cm) true leaves, were used as test substrate. The seedlings were infested with 20-50 GPA (wingless adult and nymph stages) one day prior to chemical application. Four pots with individual seedlings were used for each treatment. Test compounds (2 mg) were dissolved in 2 mL of acetone/methanol (1:1) solvent, forming stock solutions of 1000 ppm test compound. The stock solutions were diluted 5× with 0.025% Tween 20 in H2O to obtain the solution at 200 ppm test compound. A hand-held aspirator-type sprayer was used for spraying a solution to both sides of […] leaves until runoff. Reference plants (solvent check) were sprayed with the diluent only containing 20% by volume of acetone/methanol (1:1) solvent. Treated plants were held in a holding room for three days at approximately 25° C. and ambient relative humidity (RH) prior to grading. Evaluation was conducted by counting the number of live aphids per plant under a microscope. Percent Control was measured by using Abbott's correction formula (W. S. Abbott, “A Method of Computing the Effectiveness of an Insecticide” J. Econ. Entomol. 18 (1925), pp. 265-267) as follows. Corrected % Control=100*(X−Y)/X • where • X=No. of live aphids on solvent check plants and • Y=No. of live aphids on treated plants
The results are indicated in the tables entitled “Table 3: Assay Results” and “Table 4: Assay Results Part 2” (See Table Section).

[5] = Table 5: Prophetic Compounds Subsequently Exemplified

melting point	Structure (SMILES)	pest or weed control at 50 µg/cm2 ([1]; Table 3: Assay Results Part 1)	pest or weed control at 50 µg/cm2 [2]	pest or weed control at 50 µg/cm2 [1, 5]	pest or weed control at 50 µg/cm2 [3]	pest or weed control at 200 µg/mL [4]
110 to 112 °C	NC(=O)c1ccc(/C=C/C(c2cc(Cl)cc(Cl)c2)C(F)(F)F)cc1 (stereo not drawn) [AC2]	–	–	–	–	–
–	Cc1cc(/C=C/C(c2cc(Cl)cc(Cl)c2)C(F)(F)F)ccc1C(=O)NCC(=O)NCC(F)(F)F (stereo not drawn) [AC24]	50 to 100%	50 to 100%	–	–	–
–	O=C(NC1(C(=O)NCC(F)(F)F)CC1)c1ccc(/C=C/C(c2ccc(Cl)c([N+](=O)[O-])c2)C(F)(F)F)cc1C(F)(F)F (stereo not drawn) [Compound P470]	–	–	50 to 100%	50 to 100%	0 to 80%
–	CCNC(=O)C1(NC(=O)c2ccc(/C=C/C(c3cc(Cl)c(Cl)c(Cl)c3)C(F)(F)F)cc2Br)CC1 (stereo not drawn) [Compound P1023]	–	–	50 to 100%	50 to 100%	–
–	CCNC(=O)C1(NC(=O)c2ccc(/C=C/C(c3cc(Cl)c(Cl)c(Cl)c3)C(F)(F)F)cc2C(F)(F)F)CC1 (stereo not drawn) [Compound P1025]	–	–	50 to 100%	50 to 100%	0 to 80%
–	CCNC(=O)C1(NC(=O)c2ccc(/C=C/C(c3cc(Cl)c(Cl)c(Cl)c3)C(F)(F)F)cc2C)CC1 (stereo not drawn) [Compound P1026]	–	–	50 to 100%	50 to 100%	0 to 80%
–	O=C(NC1(C(=O)NCCC(F)(F)F)CC1)c1ccc(/C=C/C(c2cc(Cl)c(Cl)c(Cl)c2)C(F)(F)F)cc1Br (stereo not drawn) [Compound P1033]	–	–	50 to 100%	50 to 100%	–
–	O=C(NC1(C(=O)NCCC(F)(F)F)CC1)c1ccc(/C=C/C(c2cc(Cl)c(Cl)c(Cl)c2)C(F)(F)F)cc1C(F)(F)F (stereo not drawn) [Compound P1035]	–	–	50 to 100%	50 to 100%	–
–	O=C(NC1(C(=O)NCC(F)(F)F)CC1)c1ccc(/C=C/C(c2cc(Cl)cc(Cl)c2)C(F)(F)C(F)(F)F)cc1Br (stereo not drawn) [Compound P1043]	–	–	50 to 100%	50 to 100%	–
–	O=C(NC1(C(=O)NCC(F)(F)F)CC1)c1ccc(/C=C/C(c2cc(Cl)cc(Cl)c2)C(F)(F)C(F)(F)F)cc1C(F)(F)F (stereo not drawn) [Compound P1045]	–	–	50 to 100%	50 to 100%	–
–	O=C(NC1(C(=O)NCC(F)(F)F)CC1)c1ccc(/C=C/C(c2cc(Cl)cc(Cl)c2)C(F)(F)F)cc1Br (stereo not drawn) [Compound P1048]	–	–	50 to 100%	50 to 100%	–
–	O=C(NC1(C(=O)NCC(F)(F)F)CC1)c1ccc(/C=C/C(c2cc(Cl)cc(Cl)c2)C(F)(F)F)cc1C(F)(F)F (stereo not drawn) [Compound P1050]	–	–	50 to 100%	50 to 100%	–
–	O=C(NC1(C(=O)NCC(F)(F)F)CC1)c1ccc(/C=C/C(c2ccc(Cl)c(Cl)c2)C(F)(F)F)cc1Br (stereo not drawn) [Compound P1093]	–	–	50 to 100%	50 to 100%	–
–	O=C(NC1(C(=O)NCC(F)(F)F)CC1)c1ccc(/C=C/C(c2ccc(Cl)c(Cl)c2)C(F)(F)F)cc1C(F)(F)F (stereo not drawn) [Compound P1095]	–	–	50 to 100%	50 to 100%	–
–	O=C(NC1(C(=O)NCC(F)(F)F)CC1)c1ccc(/C=C/C(c2cc(Br)cc(Br)c2)C(F)(F)F)cc1Br (stereo not drawn) [Compound P1183]	–	–	50 to 100%	50 to 100%	–
–	O=C(NC1(C(=O)NCC(F)F)CC1)c1ccc(/C=C/C(c2cc(Br)cc(Br)c2)C(F)(F)F)cc1Br (stereo not drawn) [Compound P1193]	–	–	50 to 100%	50 to 100%	–
–	O=C(NC1(C(=O)NCC(F)F)CC1)c1ccc(/C=C/C(c2cc(Br)cc(Br)c2)C(F)(F)F)cc1C(F)(F)F (stereo not drawn) [Compound P1195]	–	–	50 to 100%	50 to 100%	–
–	O=C(NC1(C(=O)NCC(F)(F)F)CC1)c1ccc(/C=C/C(c2cc(Br)cc(Br)c2)C(F)(F)F)cc1C(F)(F)F (stereo not drawn) [Compound P1198]	–	–	50 to 100%	50 to 100%	–
–	O=C(NC1(C(=O)NCCF)CC1)c1ccc(/C=C/C(c2cc(Br)cc(Br)c2)C(F)(F)F)cc1C(F)(F)F (stereo not drawn) [Compound P1200]	–	–	50 to 100%	50 to 100%	–
–	O=C(NC1(C(=O)NCCC(F)(F)F)CC1)c1ccc(/C=C/C(c2cc(Br)cc(Br)c2)C(F)(F)F)cc1Br (stereo not drawn) [Compound P1213]	–	–	50 to 100%	50 to 100%	–
